Test results as given in patent US20100291074A1, “CYCLOPHILIN D-AMYLOID BETA INTERACTION POTENTIATES MITOCHONDRIAL DYSFUNCTION IN A TRANSGENIC MOUSE MODEL OF ALZHEIMER'S DISEASE” (COLUMBIA UNIVERSITY IN THE CITY OF NEW YORK, priority 2007, published 2010).
“Also recorded” adds a separate entry of the source.

System: cultured cortical neurons
Assay: Mitochondrial membrane potential (TMRM) in cultured neurons
Format: cell-based, mice
Settings: for TMRM-positive neurons after H2O2: H2O2 one hour, FACS
Experimental: FIGS. 5. […] (A) Western blot of cultured cortical neuron derived from nonTg and CypD-deficient mice was performed by specific α-CypD IgG. […] (F-G) FACS analysis of TMRM staining in nonTg and CypD−/− neurons treated with increasing concentrations of H2O2 for one hour. (G) Analyses of % TMRM positive neurons combined 3-4 independent experiments. […] (H-I) TMRM staining in H2O2-treated nonTg and CypD−/− neurons as shown by confocal microscopy in live cells. (J-L). FACS analysis of propidium iodide (PI) staining in nonTg and CypD−/−neurons treated with H2O2 for one hour. Percentages of PI-positive and -negative cells were shown as red line and black line, respectively.
Mitochondrial membrane potential […] was determined in primary cultured neuron derived from nonTg and Tg CypD−/− mice.
Murine cortical neurons were cultured as described. Briefly, murine cortex were dissected from Day 1 pups of nonTg and Tg CypD−/− mice, dissociated with 0.05% trypsin, and triturated in ice-cold Neurobasal A medium. Cells were then centrifuged at 200 g for 5 min to get rid of the debris. The resulting pellets were resuspended in culture medium (neurobasal A with 2% B27 supplement, 0.5 mM L-glutamine, 50 U/ml penicillin, and 50 μg/ml streptomycin) and plated onto poly-L-lysine-coated culture plates with an appropriate density. Aβ or H2O2 was added to the cultured medium at day 5 cultured neurons.
Primary cultured neurons derived from nonTg and CypD-deficient mice were incubated with 2 μM oligomeric Aβ, or H2O2 for various time points. The mitochondrial ROS was detected with 1 μM MitoSox staining The cytochrome c release was assessed by ELISA (Active Motif). Mitochondrial membrane potential was determined by TMRM labeling and analyzed by flow cytometry as described above. Apoptosis was assessed by TUNEL assay using in situ cell death detection kit (Roche).

Row | Compound | mitochondrial membrane potential ΔΨm (TMRM) (FCCP (1 μM), nonTg and CypD−/− neurons) | TMRM-positive neurons after H2O2 (CypD−/− neurons, from 73% before) [%] | TMRM-positive neurons after H2O2 (nonTg neurons, from 73.8% before) [%]
1 | N#CC(C#N)=NNc1ccc(OC(F)(F)F)cc1 [FCCP, carbonyl cyanide p-(trifluoromethoxy) phenylhydrazone] | able to dissipate mitochondria ΔΨ; also recorded: dissipated membrane ΔΨm |  | 
2 | OO [H2O2] |  | 32 | 5.5
